One experiment concerns the target T1, Aromatase (Homo sapiens, UniProt P11511).
T1 sequence (P11511 whole entry): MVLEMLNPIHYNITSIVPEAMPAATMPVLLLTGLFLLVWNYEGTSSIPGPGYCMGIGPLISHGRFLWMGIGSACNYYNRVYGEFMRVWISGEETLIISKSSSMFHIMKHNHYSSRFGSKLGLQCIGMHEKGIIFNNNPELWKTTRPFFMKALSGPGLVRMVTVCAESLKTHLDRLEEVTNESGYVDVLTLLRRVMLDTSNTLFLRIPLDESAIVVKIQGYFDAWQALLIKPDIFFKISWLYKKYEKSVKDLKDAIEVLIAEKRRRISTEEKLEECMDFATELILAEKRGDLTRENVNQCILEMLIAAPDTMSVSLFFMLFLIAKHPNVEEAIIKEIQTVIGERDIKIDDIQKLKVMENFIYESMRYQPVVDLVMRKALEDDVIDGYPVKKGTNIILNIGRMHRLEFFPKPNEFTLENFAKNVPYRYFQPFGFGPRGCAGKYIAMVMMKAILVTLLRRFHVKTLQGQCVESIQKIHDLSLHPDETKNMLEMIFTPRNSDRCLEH
Briefly: Inhibition of aromatase.

The test system of another experiment is MCF7. Briefly: Antiproliferative activity against human MCF7 cells assessed as cell growth after 4 days by sulforhodamine B assay. In kind it is functional, cell-based. To be noted: MCF7, 96 h. (The SRB assay estimates cell density from bound dye.)
In the next experiment the test system is HepG2. As to the kind of experiment: Antiproliferative activity against human HepG2 cells assessed as cell growth upto 65 uM after 4 days by sulforhodamine B assay. In kind it is functional, cell-based.
For another experiment, the target named is Cytochrome P450 3A4 (Homo sapiens, UniProt P08684). Briefly: Inhibition of CYP3A4. In kind it is ADME.
In a further experiment the target is T2, Cytochrome P450 1A1 (Homo sapiens, UniProt P04798).
T2 sequence (P04798 whole entry): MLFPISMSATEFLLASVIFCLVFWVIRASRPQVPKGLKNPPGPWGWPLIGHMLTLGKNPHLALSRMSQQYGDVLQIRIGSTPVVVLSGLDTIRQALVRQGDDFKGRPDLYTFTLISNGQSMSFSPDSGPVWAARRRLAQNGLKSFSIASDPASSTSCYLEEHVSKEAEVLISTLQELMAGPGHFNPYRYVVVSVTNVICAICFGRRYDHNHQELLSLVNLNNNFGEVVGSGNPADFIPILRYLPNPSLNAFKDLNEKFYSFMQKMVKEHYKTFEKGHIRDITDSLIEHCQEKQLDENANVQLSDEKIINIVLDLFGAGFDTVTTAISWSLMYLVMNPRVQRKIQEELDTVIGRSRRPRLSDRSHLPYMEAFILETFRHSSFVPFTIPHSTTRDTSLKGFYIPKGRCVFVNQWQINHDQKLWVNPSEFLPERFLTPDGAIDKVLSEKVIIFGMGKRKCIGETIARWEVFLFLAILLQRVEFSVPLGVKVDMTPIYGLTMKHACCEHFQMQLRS
Briefly: Inhibition of CYP1A1. In kind it is ADME.

In another experiment the test system is LNCaP. As to the kind of experiment: Antiproliferative activity against human LNCaP 1740 cells assessed as cell growth after 4 days by sulforhodamine B assay. In kind it is functional, cell-based. Conditions: 96 h.
The next experiment concerns the target T3, Cytochrome P450 2C8 (Homo sapiens, UniProt P10632).
T3 sequence (P10632 whole entry): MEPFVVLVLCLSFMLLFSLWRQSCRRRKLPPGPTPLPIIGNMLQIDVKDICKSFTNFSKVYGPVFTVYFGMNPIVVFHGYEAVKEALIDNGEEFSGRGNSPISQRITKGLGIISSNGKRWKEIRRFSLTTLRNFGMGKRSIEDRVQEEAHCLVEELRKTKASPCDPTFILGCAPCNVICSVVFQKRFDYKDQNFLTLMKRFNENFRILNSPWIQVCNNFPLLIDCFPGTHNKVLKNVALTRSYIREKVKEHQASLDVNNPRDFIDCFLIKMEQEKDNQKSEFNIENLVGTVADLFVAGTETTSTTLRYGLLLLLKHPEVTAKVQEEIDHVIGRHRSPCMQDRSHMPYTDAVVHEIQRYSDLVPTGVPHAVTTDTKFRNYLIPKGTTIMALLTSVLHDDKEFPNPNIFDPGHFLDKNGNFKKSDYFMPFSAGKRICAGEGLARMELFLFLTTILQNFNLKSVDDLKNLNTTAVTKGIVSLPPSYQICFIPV
As to the kind of experiment: Inhibition of CYP2C8. In kind it is ADME.

Another experiment relates to Lu1. As to the kind of experiment: Antiproliferative activity against human LU1 cells assessed as cell growth upto 65 uM after 4 days by sulforhodamine B assay. In kind it is functional, cell-based.

Each structure is given as a SMILES string. Activity calls are given as the source filed them. The rule behind the calls is not given here.

Cytochrome P450 3A4, sequence (P08684 whole entry): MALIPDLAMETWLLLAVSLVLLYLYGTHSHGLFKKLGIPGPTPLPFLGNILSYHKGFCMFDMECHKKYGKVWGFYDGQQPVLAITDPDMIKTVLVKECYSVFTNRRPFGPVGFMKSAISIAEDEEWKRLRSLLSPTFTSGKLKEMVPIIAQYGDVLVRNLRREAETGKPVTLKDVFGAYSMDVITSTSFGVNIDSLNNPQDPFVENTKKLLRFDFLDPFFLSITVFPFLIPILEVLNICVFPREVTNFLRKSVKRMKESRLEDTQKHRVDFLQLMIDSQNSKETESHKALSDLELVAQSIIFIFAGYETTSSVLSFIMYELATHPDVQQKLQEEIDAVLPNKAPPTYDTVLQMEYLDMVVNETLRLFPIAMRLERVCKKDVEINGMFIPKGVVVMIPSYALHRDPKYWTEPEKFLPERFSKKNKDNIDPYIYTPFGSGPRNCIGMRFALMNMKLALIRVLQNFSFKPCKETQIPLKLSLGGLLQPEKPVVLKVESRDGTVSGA

Take `C[C@@H]1O[C@@H](O[C@H]2[C@H](Oc3cc(O)c4c(c3)O[C@H](c3ccc(O)cc3)CC4=O)O[C@H](CO)[C@@H](O)[C@@H]2O)[C@H](O)[C@H](O)[C@H]1O` [NARINGIN]: 5 µM corresponded to half-maximal inhibition on Aromatase (IC50).
Regarding `CCCCC[C@H]1OC(=O)c2ccc(OC)cc2[C@H]1OC(C)=O`, the concentration for half-maximal inhibition (IC50) (as a rule, the concentration that gives 50% inhibition) with MCF7 is 66.9 µM; at Cytochrome P450 3A4 it was greater than 65 µM; on Cytochrome P450 1A1 it was 38 µM; in the experiment with LNCaP it was 57.5 µM; against Cytochrome P450 2C8, greater than 65 µM. Further, the outcome in the experiment on HepG2 and with Lu1 was inactive.

The record behind these values is ChEMBL document CHEMBL1157393, “Selective inhibition of aromatase by a dihydroisocoumarin from Xyris pterygoblephara” (J Nat Prod, 2008).
